Experimental data as given in PMC3674157 (European journal of medicinal chemistry, 2013).

How the values were obtained:
Format in all cases: cell-based
[1] = tested on: HeLa human cervical carcinoma cells; assay: High-content analysis of mitotic arrest in HeLa cells; conditions: for MDEC Nuclear condensation / MDEC Tubulin intensity: HCS assay, minimum detectable effective concentration; for mitotic arrest phenotype (immunostaining of α-tubulin, phosphohistone H3, Hoechst 33342): 1a 62 nM, 2c 940 nM, 3a 470 nM
[2] = tested on: MDA-MB-231 human breast cancer cells; assay: Wound healing; conditions: three different concentrations
[3] = tested on: REH human acute lymphoblastic leukemia cells; assay: REH cytotoxicity, MTT assay; conditions: REH and JURKAT versus NIH3T3, HUVEC

COc1cc(C(=O)/C=C/c2ccc3ccccc3c2)ccc1O [Compound 2b, (2e)-3-(2-naphthyl)-1-(3'-methoxy-4'-hydroxy-phenyl)-2-propen-1-one]
MDEC Nuclear condensation [1]: 2,200 ± 700 nM
MDEC Tubulin intensity [1]: 1,100 ± 200 nM

COc1cc2c(c(OC)c1OC)-c1ccc(OC)c(=O)cc1[C@@H](NC(C)=O)CC2 [Compound 1a, colchicine, reference compound]
mitotic arrest phenotype (immunostaining of α-tubulin, phosphohistone H3, Hoechst 33342) [1]: tubulin disorganization, increased number of phosphohistone H3-positive cells, chromatin condensation, and nuclear fragmentation
MDEC Nuclear condensation [1]: 12.0 ± 4.8 nM
MDEC Tubulin intensity [1]: 10.2 ± 3.8 nM
cell migration in the scratch wound assay [2]: significantly inhibited cell migration

O=C(/C=C/c1ccccc1)c1ccccc1 [Compound 2a, 1,3-diphenylprop-2-en-1-one]
MDEC Nuclear condensation [1]: >50,000 nM
MDEC Tubulin intensity [1]: >50,000 nM

COc1ccc(/C=C/C(=O)c2ccc3c(c2)OCO3)c(OC)c1OC [Compound 2d, (2E)-1-(1’,3’-benzodioxol-5-yl)-3-(2,3,4-trimethoxyphenyl)-2-propen-1-one]
MDEC Nuclear condensation [1]: >50,000 nM
MDEC Tubulin intensity [1]: >50,000 nM

COc1cc(C(=O)/C=C/c2ccc(N(C)C)cc2)cc(OC)c1OC [Compound 3a, (2E,Z)-1-(3’,4’,5’-trimethoxyphenyl)-3-(4-dimethylaminophenyl)-2-propen-1-one]
selectivity, nontransformed cells (NIH3T3, HUVEC, PBMC) compared with the two human tumor cell lines [3]: 45 – 100 fold
mitotic arrest phenotype (immunostaining of α-tubulin, phosphohistone H3, Hoechst 33342) [1]: tubulin disorganization, increased number of phosphohistone H3-positive cells, chromatin condensation, and nuclear fragmentation
MDEC Nuclear condensation [1]: 217 ± 67 nM
MDEC Tubulin intensity [1]: 139 ± 13 nM
cell migration in the scratch wound assay [2]: significantly inhibited cell migration

COc1cc(C(=O)/C=C/c2ccc3ccccc3c2)cc(OC)c1OC [Compound 2c, (2E)-1-(3’,4’,5’-trimethoxyphenyl)-3-(2-naphthyl)-2-propen-1-one]
selectivity, nontransformed cells (NIH3T3, HUVEC, PBMC) compared with the two human tumor cell lines [3]: 45 – 100 fold
mitotic arrest phenotype (immunostaining of α-tubulin, phosphohistone H3, Hoechst 33342) [1]: tubulin disorganization, increased number of phosphohistone H3-positive cells, chromatin condensation, and nuclear fragmentation
MDEC Nuclear condensation [1]: 317 ± 23 nM
MDEC Tubulin intensity [1]: 283 ± 52 nM
cell migration in the scratch wound assay [2]: significantly inhibited cell migration
